Experimental data taken from publication PMC7029851, “Antibacterial activity of novel dual bacterial DNA type II topoisomerase inhibitors” (PLoS ONE, 2020).
Like-named read-outs stand apart in the source and are kept apart here.

Assays:
P. aeruginosa ATCC 27853 = assay: MIC, broth microdilution; format: cell-based; conditions: Pseudomonas aeruginosa, ATCC27853; P. aeruginosa ATCC 27853, ciprofloxacin-susceptible
Method: (§1) MICs were determined by the broth microdilution method (the agar dilution method was used only for N. gonorrhoeae) according to CLSI guidelines.

H. influenzae ATCC 49766 = assay: MIC, broth microdilution; format: cell-based; conditions: Haemophilus influenzae, ATCC49766; H. influenzae ATCC 49766, ciprofloxacin-susceptible
Method: as §1

E. faecalis ATCC 29212 = assay: MIC, broth microdilution; format: cell-based; conditions: Enterococcus faecalis, ATCC29212; E. faecalis ATCC 29212, ciprofloxacin-susceptible
Method: as §1

S. aureus BAA-1720 = assay: MIC, broth microdilution; format: cell-based; conditions: Staphylococcus aureus, BAA1720; S. aureus BAA-1720, ciprofloxacin-resistant
Method: as §1

[1] = test system: K. pneumoniae ATCC 700603; assay: MIC, broth microdilution; format: cell-based; conditions: Klebsiella pneumoniae, ATCC700603; K. pneumoniae ATCC 700603, ciprofloxacin-susceptible
Method: as §1

S. pneumoniae ATCC 49619 = assay: MIC, broth microdilution; format: cell-based; conditions: Streptococcus pneumoniae, ATCC49619; S. pneumoniae ATCC 49619, ciprofloxacin-susceptible
Method: as §1

E. coli ATCC 25922 = assay: MIC, broth microdilution; format: cell-based; conditions: Escherichia coli, ATCC25922; E. coli ATCC 25922, ciprofloxacin-susceptible
Method: as §1

N. gonorrhoeae WHO N = assay: MIC, agar dilution; format: cell-based; conditions: Neisseria gonorrhoeae, ciprofloxacin-resistant
Method: as §1

[2] = test system: N. gonorrhoeae ATCC 49226; assay: MIC, agar dilution; format: cell-based; conditions: Neisseria gonorrhoeae, ATCC49226; N. gonorrhoeae ATCC 49226, ciprofloxacin-susceptible
Method: as §1

N. gonorrhoeae WHO K = assay: MIC, agar dilution; format: cell-based; conditions: Neisseria gonorrhoeae, ciprofloxacin-resistant
Method: as §1

N. gonorrhoeae WHO L = assay: MIC, agar dilution; format: cell-based; conditions: Neisseria gonorrhoeae, ciprofloxacin-resistant
Method: as §1

[3] = test system: N. gonorrhoeae ATCC 19424; assay: MIC, agar dilution; format: cell-based; conditions: Neisseria gonorrhoeae, ATCC19424; N. gonorrhoeae ATCC 19424, ciprofloxacin-susceptible
Method: as §1

Human Topoisomerase II = target: T1, Human Topoisomerase II (Homo sapiens, UniProt P11388); assay: Human topoisomerase II decatenation gel assay; format: biochemical
T1 construct: purchased Inspiralis (Norwich, UK)
T1 sequence (P11388 whole entry): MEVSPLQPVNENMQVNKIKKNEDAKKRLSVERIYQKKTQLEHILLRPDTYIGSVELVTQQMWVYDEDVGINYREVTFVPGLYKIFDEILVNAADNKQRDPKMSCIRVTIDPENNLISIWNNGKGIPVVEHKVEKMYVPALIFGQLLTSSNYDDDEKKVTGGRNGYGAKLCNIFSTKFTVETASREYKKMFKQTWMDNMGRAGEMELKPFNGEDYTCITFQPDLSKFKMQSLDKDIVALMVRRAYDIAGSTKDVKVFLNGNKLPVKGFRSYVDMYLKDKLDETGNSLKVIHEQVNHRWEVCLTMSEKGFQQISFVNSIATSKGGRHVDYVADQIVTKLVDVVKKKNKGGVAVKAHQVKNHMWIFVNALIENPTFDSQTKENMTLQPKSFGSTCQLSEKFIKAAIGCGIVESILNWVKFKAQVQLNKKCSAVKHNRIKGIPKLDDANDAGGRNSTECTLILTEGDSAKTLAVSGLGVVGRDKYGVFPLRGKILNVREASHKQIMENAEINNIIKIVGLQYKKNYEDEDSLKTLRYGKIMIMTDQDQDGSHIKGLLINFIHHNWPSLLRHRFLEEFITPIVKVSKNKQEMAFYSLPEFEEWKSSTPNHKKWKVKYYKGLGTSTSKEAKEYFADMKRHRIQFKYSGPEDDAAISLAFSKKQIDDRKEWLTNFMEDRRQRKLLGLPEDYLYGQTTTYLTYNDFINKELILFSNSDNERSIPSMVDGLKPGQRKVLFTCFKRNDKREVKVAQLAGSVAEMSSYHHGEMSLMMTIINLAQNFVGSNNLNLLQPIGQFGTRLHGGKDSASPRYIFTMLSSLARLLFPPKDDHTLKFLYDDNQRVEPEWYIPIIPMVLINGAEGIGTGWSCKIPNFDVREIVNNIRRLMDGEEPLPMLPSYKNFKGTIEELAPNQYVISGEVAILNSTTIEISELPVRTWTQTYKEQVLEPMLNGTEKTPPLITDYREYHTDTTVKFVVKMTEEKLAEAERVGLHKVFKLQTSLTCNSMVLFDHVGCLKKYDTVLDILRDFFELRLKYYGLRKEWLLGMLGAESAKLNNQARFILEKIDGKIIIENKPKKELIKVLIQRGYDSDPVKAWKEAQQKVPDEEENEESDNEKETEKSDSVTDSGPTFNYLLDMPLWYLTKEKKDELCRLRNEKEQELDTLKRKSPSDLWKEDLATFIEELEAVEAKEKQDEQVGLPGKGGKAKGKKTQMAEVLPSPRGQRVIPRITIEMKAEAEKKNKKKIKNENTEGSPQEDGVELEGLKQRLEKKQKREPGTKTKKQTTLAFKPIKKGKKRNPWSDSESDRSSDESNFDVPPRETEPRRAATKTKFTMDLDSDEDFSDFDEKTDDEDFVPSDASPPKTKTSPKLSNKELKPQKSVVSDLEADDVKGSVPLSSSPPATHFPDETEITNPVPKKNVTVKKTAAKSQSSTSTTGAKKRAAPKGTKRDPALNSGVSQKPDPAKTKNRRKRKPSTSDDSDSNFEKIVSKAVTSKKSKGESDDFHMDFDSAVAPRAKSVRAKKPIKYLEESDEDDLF
Method: (§2) S. aureus and E. coli DNA gyrase supercoiling and topo IV decatenation assay kits, as well as human topoisomerase II decatenation assay kits, were provided by Inspiralis (Norwich, UK). Assays were performed according to the manufacturer’s instructions. The compounds were serially diluted (1:3 dilutions starting from a 300 μM final concentration) and assayed in a reaction mixture to obtain concentration-response curves in two different replicate experiments. The final concentration of DMSO in the assays was 1% (v/v). The reactions were terminated by the addition of 30 μl chloroform/isoamyl alcohol (26:1) and 30 μl Stop Dye (40% sucrose, 100 mM Tris HCl pH 7.5, 1 mM EDTA, 0.5 μg/ml bromophenol blue), after which the samples were loaded onto a 1.0% TAE ([…]) gel that was then run at 80 V for 2 hours. DNA bands were visualized by ethidium bromide staining the gel for 10 minutes, which was then destained for 10 minutes in water and analysed using gel documentation equipment (Syngene, Cambridge, UK). The DNA in each band was quantitated using Syngene Gene Tools software. Raw gel data (fluorescent band volumes) were converted by the software to percentages of the control (the fully supercoiled or decatenated DNA band). […] The global curve fit non-linear regression tool was used to calculate the IC50 values. The results are expressed as the average values obtained after calculating the IC50 from each replicate run.

E. coli DNA gyrase = target: T2, E. coli DNA gyrase (Escherichia coli, UniProt P0AES4); assay: E. coli DNA gyrase supercoiling gel assay; format: biochemical
T2 construct: purchased Inspiralis (Norwich, UK)
Method: as §2

[4] = target: T3, S. aureus Topoisomerase IV (Staphylococcus aureus, UniProt P0C1U9); assay: S. aureus topoisomerase IV decatenation gel assay; format: biochemical
T3 construct: purchased Inspiralis (Norwich, UK)
Method: as §2

[5] = test system: K. pneumoniae AcrAB- mutant; assay: microbe, parasite or virus in culture; format: cell-based; conditions: Klebsiella pneumoniae
Method: (§3) The bacterial reference strains used in this study were purchased from ATCC (American Type Culture Collection) via LGC Standards (Middlesex, UK). […] Clinical MDR isolates were provided by Aptuit, the IHMA Europa Sàrl repository (Epalinges, Switzerland) and the Statens Serum Institute (Copenhagen, Denmark).
as §1

E. coli TolC- mutant = assay: microbe, parasite or virus in culture; format: cell-based; conditions: Escherichia coli
Method: as §3, §1

S. aureus ATCC 29213 = assay: MIC, broth microdilution; format: cell-based, Staphylococcus aureus; conditions: Staphylococcus aureus, ATCC29213, S. aureus ATCC 29213, ciprofloxacin-susceptible
Method: as §1

S. aureus DNA gyrase = target: T4, S. aureus DNA gyrase (Staphylococcus aureus, UniProt P20831); assay: S. aureus DNA gyrase supercoiling gel assay; format: biochemical
T4 construct: purchased Inspiralis (Norwich, UK)
T4 sequence (P20831 whole entry): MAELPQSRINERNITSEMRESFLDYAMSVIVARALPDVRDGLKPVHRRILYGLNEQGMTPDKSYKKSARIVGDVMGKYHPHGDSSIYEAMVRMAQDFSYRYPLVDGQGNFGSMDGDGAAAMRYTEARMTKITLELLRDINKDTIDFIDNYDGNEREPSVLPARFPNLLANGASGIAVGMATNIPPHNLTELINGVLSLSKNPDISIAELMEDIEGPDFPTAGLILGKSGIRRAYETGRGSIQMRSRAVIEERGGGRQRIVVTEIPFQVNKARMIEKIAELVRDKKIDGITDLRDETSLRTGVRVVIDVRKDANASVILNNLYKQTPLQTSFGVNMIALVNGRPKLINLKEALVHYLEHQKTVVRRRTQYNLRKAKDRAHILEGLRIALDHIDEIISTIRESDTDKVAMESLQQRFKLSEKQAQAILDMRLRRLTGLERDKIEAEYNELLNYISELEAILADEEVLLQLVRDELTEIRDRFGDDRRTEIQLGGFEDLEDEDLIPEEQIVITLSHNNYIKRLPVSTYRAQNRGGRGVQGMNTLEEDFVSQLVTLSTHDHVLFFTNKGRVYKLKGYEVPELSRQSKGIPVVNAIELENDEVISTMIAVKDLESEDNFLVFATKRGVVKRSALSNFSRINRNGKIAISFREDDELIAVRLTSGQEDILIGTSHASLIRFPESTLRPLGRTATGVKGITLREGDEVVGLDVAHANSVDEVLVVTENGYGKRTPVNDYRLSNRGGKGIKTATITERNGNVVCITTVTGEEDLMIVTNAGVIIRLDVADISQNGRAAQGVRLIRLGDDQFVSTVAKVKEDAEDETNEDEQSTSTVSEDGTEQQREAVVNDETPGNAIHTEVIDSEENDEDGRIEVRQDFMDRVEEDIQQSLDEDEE
T4 sequence (P0A0K8 whole entry partner): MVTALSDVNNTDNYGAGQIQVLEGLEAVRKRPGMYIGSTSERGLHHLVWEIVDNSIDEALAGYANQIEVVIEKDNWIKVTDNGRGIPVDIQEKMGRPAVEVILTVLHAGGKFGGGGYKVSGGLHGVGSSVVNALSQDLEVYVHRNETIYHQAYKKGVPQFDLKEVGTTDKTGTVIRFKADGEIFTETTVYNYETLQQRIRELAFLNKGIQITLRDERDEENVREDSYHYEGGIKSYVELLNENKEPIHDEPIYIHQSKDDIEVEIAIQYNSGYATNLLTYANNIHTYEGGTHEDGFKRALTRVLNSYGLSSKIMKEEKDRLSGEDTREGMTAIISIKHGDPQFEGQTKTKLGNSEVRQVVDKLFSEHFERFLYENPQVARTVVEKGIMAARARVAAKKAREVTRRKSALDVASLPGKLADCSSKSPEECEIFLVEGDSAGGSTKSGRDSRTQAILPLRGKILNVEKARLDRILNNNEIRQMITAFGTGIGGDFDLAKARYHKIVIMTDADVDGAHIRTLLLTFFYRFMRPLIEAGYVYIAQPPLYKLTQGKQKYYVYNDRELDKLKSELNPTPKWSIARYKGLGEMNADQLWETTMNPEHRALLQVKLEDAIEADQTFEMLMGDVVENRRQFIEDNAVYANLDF
Method: as §2

[6] = test system: N. gonorrhoeae clinical isolates (n = 38); assay: microbe, parasite or virus in culture; format: cell-based, Neisseria gonorrhoeae
Summary of the method: (§4)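 For N. gonorrhoeae, inhibitory concentrations came from agar dilution, while all other organisms were run in broth microdilution according to CLSI. Results summarise the isolate collection as MIC50 and MIC90 values.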

E. coli Topoisomerase IV = target: T5, E. coli Topoisomerase IV (Escherichia coli, UniProt P0AFI2); assay: E. coli topoisomerase IV decatenation gel assay; format: biochemical
T5 construct: purchased Inspiralis (Norwich, UK)
T5 sequence (P20083 whole entry): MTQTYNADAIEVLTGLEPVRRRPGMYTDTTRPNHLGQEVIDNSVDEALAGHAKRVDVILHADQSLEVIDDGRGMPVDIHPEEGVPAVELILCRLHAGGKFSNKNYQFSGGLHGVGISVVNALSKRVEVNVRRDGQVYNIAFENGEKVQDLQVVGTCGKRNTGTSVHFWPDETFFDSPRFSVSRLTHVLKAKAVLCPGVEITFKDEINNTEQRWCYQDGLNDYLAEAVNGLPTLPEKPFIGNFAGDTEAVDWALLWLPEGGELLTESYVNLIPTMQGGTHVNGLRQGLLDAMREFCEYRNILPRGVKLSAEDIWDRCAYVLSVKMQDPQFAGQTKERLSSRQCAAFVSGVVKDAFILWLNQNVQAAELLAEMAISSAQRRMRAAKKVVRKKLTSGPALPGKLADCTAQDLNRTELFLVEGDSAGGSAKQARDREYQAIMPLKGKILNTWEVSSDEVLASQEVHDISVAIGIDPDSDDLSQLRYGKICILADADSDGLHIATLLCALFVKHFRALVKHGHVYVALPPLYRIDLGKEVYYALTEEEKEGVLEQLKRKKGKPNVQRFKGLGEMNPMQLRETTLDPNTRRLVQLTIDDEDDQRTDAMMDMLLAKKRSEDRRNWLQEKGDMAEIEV
T5 sequence (P0AFI2 whole entry): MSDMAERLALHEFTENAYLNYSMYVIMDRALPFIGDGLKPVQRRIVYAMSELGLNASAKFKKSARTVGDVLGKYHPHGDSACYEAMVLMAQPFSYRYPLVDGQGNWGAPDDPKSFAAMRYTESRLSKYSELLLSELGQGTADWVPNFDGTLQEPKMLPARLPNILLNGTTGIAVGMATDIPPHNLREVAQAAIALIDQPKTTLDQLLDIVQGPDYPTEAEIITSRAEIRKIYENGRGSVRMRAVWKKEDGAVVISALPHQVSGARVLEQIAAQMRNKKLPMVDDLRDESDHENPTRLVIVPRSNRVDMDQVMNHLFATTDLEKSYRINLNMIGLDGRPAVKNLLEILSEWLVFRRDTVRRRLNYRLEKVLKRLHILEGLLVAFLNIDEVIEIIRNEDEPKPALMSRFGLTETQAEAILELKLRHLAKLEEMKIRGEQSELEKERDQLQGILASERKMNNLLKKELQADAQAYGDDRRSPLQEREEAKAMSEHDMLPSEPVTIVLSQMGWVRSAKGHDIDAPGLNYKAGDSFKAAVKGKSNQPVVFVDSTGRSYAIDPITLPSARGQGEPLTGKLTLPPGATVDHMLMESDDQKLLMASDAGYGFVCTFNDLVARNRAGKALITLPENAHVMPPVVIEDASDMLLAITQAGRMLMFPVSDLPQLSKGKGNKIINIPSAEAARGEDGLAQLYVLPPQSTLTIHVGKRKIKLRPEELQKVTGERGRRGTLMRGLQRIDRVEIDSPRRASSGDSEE
Method: as §2

[7] = test system: E. faecium clinical isolates (n = 12) vanA (6)/vanB (6); assay: MIC, multidrug-resistant clinical isolates; format: cell-based; conditions: Enterococcus faecium
Summary of the method: as §4

[8] = test system: E. faecalis clinical isolates (n = 12) vanA (6)/vanB (6); assay: MIC, multidrug-resistant clinical isolates; format: cell-based; conditions: Enterococcus faecalis
Summary of the method: as §4

For `Cl.O=c1oc2ccc(F)cc2c2[nH]c(CN[C@H]3CC[C@H](n4c(=O)ccc5ncc(F)cc54)CC3)cc12` [Compound 3, 8-fluoro-2-({[trans-4-(7-fluoro-2-oxo-1,5-naphthyridin-1(2H)-yl)cyclohexyl]amino}methyl)[1]benzopyrano[4,3-b]pyrrol-4(1H)-one hydrochloride], the MIC (P. aeruginosa ATCC 27853) was 4 µg/mL, the MIC (H. influenzae ATCC 49766) was 0.12 µg/mL and the MIC (E. faecalis ATCC 29212) was 0.12 µg/mL. The MIC (S. aureus BAA-1720) was 0.12 µg/mL, the MIC [1] was 2 µg/mL and the MIC (S. pneumoniae ATCC 49619) was 0.25 µg/mL. For the same compound, the MIC (E. coli ATCC 25922) was 0.5 µg/mL, the MIC (N. gonorrhoeae WHO N) was 0.016 µg/mL and the MIC [2] was 0.016 µg/mL. For the same compound, the MIC (N. gonorrhoeae WHO K) was 0.016 µg/mL, the MIC (N. gonorrhoeae WHO L) was 0.016 µg/mL and the MIC [3] was ≤ 0.06 µg/mL. For the same compound, the IC50 (Human Topoisomerase II; average of two replicate experiments, read-out: IC50 Human Topoisomerase II decatenation (average)) was 56000 nM, the IC50 (Human Topoisomerase II; replicate Assay 1, read-out: IC50 Human Topoisomerase II (TopoII) decatenation, Assay 1) was 46000 nM and the IC50 (Human Topoisomerase II; replicate Assay 2, read-out: IC50 Human Topoisomerase II (TopoII) decatenation, Assay 2) was 66000 nM. For the same compound, the IC50 (E. coli DNA gyrase; IC50 E. coli Gyrase Supercoiling (average), average of two replicate experiments) was < 100 nM, the IC50 (E. coli DNA gyrase; IC50 E. coli gyrase Supercoiling, Assay 1, replicate Assay 1) was < 100 nM and the IC50 (E. coli DNA gyrase; IC50 E. coli gyrase Supercoiling, Assay 2, replicate Assay 2) was < 100 nM. The IC50 (E. coli DNA gyrase; read-out: IC50 E. coli Gyrase Supercoiling (average), average of two replicate experiments) was < 100 nM, the IC50 ([4]; average of two replicate experiments, read-out: IC50 S. aureus Topoisomerase IV decatenation (average)) was < 100 nM and the IC50 ([4]; replicate Assay 1, read-out: IC50 S. aureus Topoisomerase IV decatenation, Assay 1) was < 100 nM. The IC50 ([4]; replicate Assay 2, read-out: IC50 S. aureus Topoisomerase IV decatenation, Assay 2) was < 100 nM, the MIC [5] was ≤ 0.016 µg/mL and the MIC (E. coli TolC- mutant) was ≤ 0.016 µg/mL. For the same compound, the MIC (S. aureus ATCC 29213) was 0.25 µg/mL, the IC50 (S. aureus DNA gyrase; average of two replicate experiments, read-out: IC50 S. aureus Gyrase Supercoiling (average)) was < 100 nM and the IC50 (S. aureus DNA gyrase; replicate Assay 1, read-out: IC50 S.aureus gyrase Supercoiling, Assay 1) was < 100 nM. The IC50 (S. aureus DNA gyrase; replicate Assay 2, read-out: IC50 S.aureus gyrase Supercoiling, Assay 2) was < 100 nM, the MIC range [6] was 0.004 to 0.03 µg/mL and the MIC50 ([6]; Neisseria gonorrhoeae) was 0.016 µg/mL. For the same compound, the MIC90 ([6]; Neisseria gonorrhoeae) was 0.03 µg/mL, the IC50 (E. coli Topoisomerase IV; IC50 E. coli Topoisomerase IV decatenation (average), average of two replicate experiments) was < 100 nM and the IC50 (E. coli Topoisomerase IV; IC50 E. coli Topoisomerase IV decatenation, Assay 1, replicate Assay 1) was < 100 nM. The IC50 (E. coli Topoisomerase IV; IC50 E. coli Topoisomerase IV decatenation, Assay 2, replicate Assay 2) was < 100 nM, the IC50 (E. coli Topoisomerase IV; read-out: IC50 E. coli Topoisomerase IV decatenation (average), average of two replicate experiments) was < 100 nM and the MIC50 [7] was 0.12 µg/mL. For the same compound, the MIC90 [7] was 0.25 µg/mL, the MIC ([7]; read-out: MIC range) was 0.06 to 2 µg/mL and the MIC50 [8] was 0.12 µg/mL. For the same compound, the MIC90 [8] was 0.12 µg/mL and the MIC ([8]; read-out: MIC range) was 0.06 to 0.12 µg/mL.
